In ChEMBL document CHEMBL3244107, “Synthesis and structure-activity relationships of bestatin analogues, inhibitors of aminopeptidase B” (J Med Chem, 1977):
Values after ≈ are worked out from the molar mass of the structure shown.

Experiments:
[1] = Retardation factor, Rf value of the compound using BuOH-AcOH-H20 at 4:1:1 ratio by ninhydrin; type: physicochemical
[2] = Inhibition of leucine aminopeptidase B (unknown origin) using 0.2 mM L-leucine-beta-naphthylamide; set-up: species or system Homo sapiens
[3] = biological target: T1, Aminopeptidase B (Rattus norvegicus, UniProt O09175); test: Inhibition of rat liver aminopeptidase B using 0.2 mM […] by colorimetry
T1 sequence (O09175 whole entry): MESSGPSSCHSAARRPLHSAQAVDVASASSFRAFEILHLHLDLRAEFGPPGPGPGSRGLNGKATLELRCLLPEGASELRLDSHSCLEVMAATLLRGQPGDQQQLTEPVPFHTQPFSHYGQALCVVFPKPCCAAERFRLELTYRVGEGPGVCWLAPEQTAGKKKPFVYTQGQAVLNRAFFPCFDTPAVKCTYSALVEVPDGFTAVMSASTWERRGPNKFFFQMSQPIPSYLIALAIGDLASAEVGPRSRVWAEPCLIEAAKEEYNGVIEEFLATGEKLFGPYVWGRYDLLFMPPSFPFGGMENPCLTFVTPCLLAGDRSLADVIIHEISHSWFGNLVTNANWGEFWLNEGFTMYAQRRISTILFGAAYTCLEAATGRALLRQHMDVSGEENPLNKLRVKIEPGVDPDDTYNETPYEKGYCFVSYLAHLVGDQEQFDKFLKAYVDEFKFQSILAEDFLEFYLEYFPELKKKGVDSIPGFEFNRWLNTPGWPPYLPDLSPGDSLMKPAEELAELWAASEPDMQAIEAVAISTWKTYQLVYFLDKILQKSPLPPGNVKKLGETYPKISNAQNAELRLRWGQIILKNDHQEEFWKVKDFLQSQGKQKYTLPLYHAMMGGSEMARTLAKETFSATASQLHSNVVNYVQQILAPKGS

| SMILES | Rf [1] | IC50 [2] [µg/mL] | IC50 [3] [µM] |
| --- | --- | --- | --- |
| CCCC[C@H](NC(=O)[C@@H](O)[C@H](N)Cc1ccccc1)C(=O)O | 0.47 | – | – |
| N[C@H](Cc1ccccc1)[C@H](O)C(=O)NCC(=O)O | 0.26 | – | – |
| N[C@H](Cc1ccccc1)[C@H](O)C(=O)NCCCC(=O)O | 0.35 | – | 392 |
| N[C@H](Cc1ccccc1)[C@H](O)C(=O)NCCCCCC(=O)O | 0.48 | – | 357 |
| N[C@H](Cc1ccccc1)[C@H](O)C(=O)N1CCC[C@H]1C(=O)O | 0.25 | – | > 855 |
| NCCCC[C@H](NC(=O)[C@@H](O)[C@H](N)Cc1ccccc1)C(=O)O | 0.06 | – | > 773 |
| N[C@H](Cc1ccccc1)[C@H](O)C(=O)N[C@@H](CCC(=O)O)C(=O)O | 0.27 | – | – |
| NC(=O)CC[C@H](NC(=O)[C@@H](O)[C@H](N)Cc1ccccc1)C(=O)O | 0.17 | – | – |
| N[C@H](Cc1ccccc1)[C@H](O)C(=O)N[C@@H](CO)C(=O)O | 0.2 | – | 2.48 |
| CSCC[C@H](NC(=O)[C@@H](O)[C@H](N)Cc1ccccc1)C(=O)O | 0.37 | – | – |
| C[C@H](NC(=O)[C@@H](O)[C@H](N)Cc1ccccc1)C(=O)O | 0.21 | – | 1.01 |
| CC(C)[C@H](NC(=O)[C@@H](O)[C@H](N)Cc1ccccc1)C(=O)O | 0.42 | – | – |
| CCC[C@H](NC(=O)[C@@H](O)[C@H](N)Cc1ccccc1)C(=O)O | 0.41 | – | – |
| CC[C@H](C)[C@H](NC(=O)[C@@H](O)[C@H](N)Cc1ccccc1)C(=O)O | 0.48 | – | 0.13 |
| N[C@H](Cc1ccccc1)[C@H](O)C(=O)N[C@@H](Cc1ccccc1)C(=O)O | 0.44 | – | – |
| CC(C)CCNC(=O)[C@@H](O)[C@H](N)Cc1ccccc1.Cl | 0.65 | – | 565 |
| CC(C)C[C@H](NC(=O)[C@@H](O)[C@H](N)Cc1ccccc1)C(=O)NCC(=O)O | 0.34 | – | 93 |
| CC(C)C[C@H](NC(=O)[C@@H](O)[C@H](N)Cc1ccc([N+](=O)[O-])cc1)C(=O)O | 0.58 | – | – |
| CC(C)C[C@H](NC(=O)[C@H](O)[C@H](N)c1ccccc1)C(=O)O | 0.38 | – | – |
| N[C@H](Cc1ccccc1)[C@H](O)C(=O)NCCC(=O)O | 0.34 | – | 141 |
| CCCCCCC(NC(=O)[C@@H](O)[C@H](N)Cc1ccccc1)C(=O)O (mixture of isomers) | 0.58 | – | – |

The remaining lines, values ahead:

| Rf [1] | IC50 [2] [µg/mL] | IC50 [3] [µM] | SMILES |
| --- | --- | --- | --- |
| 0.49 | – | – | CC(C)C[C@H](NC(=O)[C@@H](O)[C@H](N)CC(C)C)C(=O)O |
| 0.52 | 2.7 (≈ 8.76 µM) | 0.162 | CC(C)C[C@@H](NC(=O)[C@@H](O)[C@@H](N)Cc1ccccc1)C(=O)O |
| 0.37 | > 250 | > 811 | CC(C)C[C@@H](NC(=O)[C@H](O)[C@H](N)Cc1ccccc1)C(=O)O |
| 0.49 | > 250 | > 811 | CC(C)C[C@H](NC(=O)[C@H](O)[C@@H](N)Cc1ccccc1)C(=O)O |
| 0.48 | > 250 | 438 | CC(C)C[C@@H](NC(=O)[C@H](O)[C@@H](N)Cc1ccccc1)C(=O)O |
| 0.13 | – | 641 | CC(C)C[C@H](NC(=O)[C@@H](O)CN)C(=O)O |
| 0.13 | – | > 1150 | CC(C)C[C@H](NC(=O)[C@H](O)CN)C(=O)O |
| 0.47 | – | 3.5 | CC(C)C[C@H](NC(=O)[C@@H](O)[C@H](N)CC1CCCCC1)C(=O)O |
| 0.25 | – | – | CC(C)C[C@H](NC(=O)[C@@H](O)[C@H](N)Cc1ccc(N)cc1)C(=O)O |
| 0.23 | – | – | CC(C)C[C@H](NC(=O)[C@H](O)[C@@H](C)N)C(=O)O |
| 0.27 | – | – | CC(C)C[C@H](NC(=O)[C@@H](O)[C@@H](C)N)C(=O)O |
| 0.43 | – | – | CC(C)C[C@H](NC(=O)[C@H](O)[C@H](N)CC(C)C)C(=O)O |
| 0.41 | – | – | CC(C)C[C@H](NC(=O)[C@@H](O)[C@H](N)c1ccccc1)C(=O)O |
| 0.42 | – | – | CC(C)C[C@H](NC(=O)[C@H](O)[C@H](N)Cc1ccc(Cl)cc1)C(=O)O |
| 0.52 | – | – | CC(C)C[C@H](NC(=O)[C@@H](O)[C@H](N)Cc1ccc(Cl)cc1)C(=O)O |
| 0.53 | – | – | Cc1ccc(C[C@@H](N)[C@@H](O)C(=O)N[C@@H](CC(C)C)C(=O)O)cc1 |
| 0.58 | – | – | Cc1ccc(C[C@@H](N)[C@H](O)C(=O)N[C@@H](CC(C)C)C(=O)O)cc1 |
| 0.49 | 3.4 (≈ 11 µM) | – | CC(C)C[C@@H](NC(=O)[C@@H](O)[C@H](N)Cc1ccccc1)C(=O)O |
| 0.37 | 0.07 (≈ 0.227 µM) | – | CC(C)C[C@H](NC(=O)[C@@H](O)[C@@H](N)Cc1ccccc1)C(=O)O |
| 0.52 | 7.5 (≈ 24.3 µM) | 324 | CC(C)C[C@H](NC(=O)[C@H](O)[C@H](N)Cc1ccccc1)C(=O)O |
| 0.46 | – | – | CC(C)C[C@H](NC(=O)C(O)C(N)Cc1ccccc1Cl)C(=O)O (mixture of isomers) |
| 0.48 | 0.01 (≈ 0.0324 µM) | 0.162 | CC(C)C[C@H](NC(=O)[C@@H](O)[C@H](N)Cc1ccccc1)C(=O)O [UBENIMEX] |
